Results as given in patent US8981106B2, “Pyrimidinecarboxamides as CXCR2 modulators” (Syntrix Biosystems, Inc., priority 2009, dated 2015).
Where “and” joins values, the source holds several entries; their conditions need not be identical. Equal entries are not always repeated.

Biological target: T1, CXCR2 (Homo sapiens (Human), UniProt P25025)
Experiment: Agonist activity: intracellular calcium release in human neutrophils in the absence of GROα
Type: cell-based
Conditions: human neutrophils, agonist calcium release
Description: (§1) In Tables 1-5, the IC50 or EC50 values were determined using the following assay. This assay measures intracellular calcium release via fluorescence as an indication of CXCR2 receptor activation by the physiologic agonist GROα. The assay is a Ca^2+ mobilization assay that measures changes in intracellular Ca^2+ with a FlexStation II scanning fluorometer using a FLIPR-3 Calcium Assay Kit (Molecular Devices, Sunnyvale, Calif.). The procedure is as follows:
(§2) 9. The maximum change in fluorescence, expressed in arbitrary units over baseline (Max-Min) was used to determine the GROα response. […] Therapeutic Activity
(§3) The maximum change in fluorescence, expressed in arbitrary units over baseline (Max-Min), was used to determine the GROα response.
Intracellular calcium release is a hallmark of CXCR2 activation by endogenous agonists, such as GROα and IL-8.

T1 sequence (P25025 whole entry): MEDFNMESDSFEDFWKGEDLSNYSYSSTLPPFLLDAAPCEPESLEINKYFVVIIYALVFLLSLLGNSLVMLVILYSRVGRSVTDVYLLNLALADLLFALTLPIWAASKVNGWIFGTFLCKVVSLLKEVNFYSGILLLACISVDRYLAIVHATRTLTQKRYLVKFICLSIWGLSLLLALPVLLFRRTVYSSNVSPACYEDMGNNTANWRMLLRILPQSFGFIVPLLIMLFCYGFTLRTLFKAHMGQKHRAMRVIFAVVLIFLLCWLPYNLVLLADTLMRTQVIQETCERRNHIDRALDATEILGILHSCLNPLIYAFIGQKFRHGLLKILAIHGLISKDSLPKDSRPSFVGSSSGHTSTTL

| EC50 | SMILES |
| --- | --- |
| 1.8 µM and 1.81 µM | O=C(Nc1ccc(F)cc1)c1ccc(SCc2cc(OC(F)(F)F)ccc2O)nc1 [Compound 14, 6-(2-hydroxy-5-trifluoromethoxy-benzylsulfanyl)-N-(4-fluoro-phenyl)-nicotinamide] |
| 2.4 µM | O=C(Nc1ccc(F)cc1)c1ccc(SCc2ccccc2O)nc1 [Compound 13] |

Same assay, conditions: relative to the response to 25 nM GROα

| Magnitude of Agonist Response (% of GROα only Control) [%] | SMILES |
| --- | --- |
| 15 | O=C(Nc1ccc(F)cc1)c1ccc(SCc2cc(OC(F)(F)F)ccc2O)nc1 [Compound 14, 6-(2-hydroxy-5-trifluoromethoxy-benzylsulfanyl)-N-(4-fluoro-phenyl)-nicotinamide] |
| 60 | O=C(Nc1ccc(F)cc1)c1ccc(SCc2ccccc2O)nc1 [Compound 13] |

Biological target: T1, CXCR2
Experiment: Inhibition of GROα-mediated intracellular calcium release in human neutrophils (FLIPR-3 Ca2+ mobilization)
Type: cell-based
Conditions: human neutrophils, 25 nM GROα; read-out: IC50
Description: as §1
1. Human neutrophils were suspended in HBSS^− (without Ca^2+ and Mg^2+) containing 10 mM HEPES and FLIPR Calcium 3 dye (3.1×10^7 cells in total volume 1.7 mL).
2. […] As controls, 2 μL of DMSO (1% final concentration) were added to other 2 tubes.
3. Cells were incubated for 30 min at 37° C.
4. After dye loading, tubes were centrifuged at 6,000 rpm for 1 min, supernatant was removed and cell pellet was re-suspended in 200 μL of HBSS^+ (with Ca^2+ and Mg^2+) containing 10 mM HEPES.
5. The compound or DMSO (control) was added again at the same concentrations that were used during cell loading.
6. The cell suspension was aliquoted into a 96-well Reading Plate (Corning) in a volume of 90 μL (10^5 cells/well). The Compound Plate contained physiologic agonist (GROα in HBSS^−) or HBSS^− (control).
as §2
Briefly, human neutrophils were suspended in HBSS^− (without Ca^2+ and Mg^2+) containing 10 mM HEPES and FLIPR Calcium 3 dye (3.1×10^7 cells in total volume 1.7 mL). […] As controls, 2 μL of DMSO (1% final concentration) were added to 2 other tubes. Cells were incubated for 30 min at 37° C. After dye loading, tubes were centrifuged at 6,000 rpm for 1 min, supernatant was removed and the cell pellet was re-suspended in 200 μL of HBSS^+ (with Ca^2+ and Mg^2+) containing 10 mM HEPES. The test compound or DMSO (control) was added again at the same concentrations that were used during cell loading. The cell suspension was aliquoted into a 96-well Reading Plate (Corning) in a volume of 90 μL (10^5 cells/well). The Compound Plate contained agonist (GROα in HBSS^−) or HBSS^− (control).
as §3

| IC50 [µM] | SMILES |
| --- | --- |
| 0.028 ± 0.006 | O=C(Nc1ccc(F)cc1)c1ccc(SCc2cc(OC(F)(F)F)ccc2O)nc1 [Compound 14, 6-(2-hydroxy-5-trifluoromethoxy-benzylsulfanyl)-N-(4-fluoro-phenyl)-nicotinamide] |
| 0.611 | CC1(C)OB(c2ccccc2CCSc2ccc(C(=O)Nc3ccc(F)cc3)cn2)OC1(C)C [Compound 15] |
| 0.89 ± 0.67 | O=C(c1ccc(SCc2ccccc2B(O)O)nc1)N(Cc1ccncc1)c1ccc(F)cc1 [Compound 157] |
| > 10 | O=C(Nc1ccc(F)cc1)c1ccc(SCc2ccc([N+](=O)[O-])cc2)nc1 [Compound 39] |
| > 10 | O=C(CSc1ccc(C(=O)Nc2ccc(F)cc2)cn1)c1ccc(C(F)(F)F)cc1 [Compound 86] |
| > 10 | O=C(Nc1ccc(F)cc1)c1ccc(SCC(=O)c2cc(-c3ccc(Cl)cc3)no2)nc1 [Compound 134] |
| > 10 | O=C(Nc1ccc(F)cc1)c1ccc(SCC(=O)c2ccc(-c3ccccc3)s2)nc1 [Compound 123] |
| 0.216 ± 0.066 | O=C(Nc1ccc(F)cc1)c1ccc(SCc2ccc3nonc3c2)nc1 [Compound 65] |
| 0.037 ± 0.007 | O=C(Nc1ccc(F)cc1O)c1ccc(SCc2ccccc2B(O)O)nc1 [Compound 165] |
| > 10 | O=C(Nc1ccc(F)cc1)c1ccc(SCC(=O)c2ccccc2C(F)(F)F)nc1 [Compound 108] |
| > 5 | O=C(CSc1ccc(C(=O)Nc2ccc(F)cc2)cn1)c1ccc(N2CCOCC2)cc1 [Compound 99] |
| > 10 | COc1ccc(C(=O)CSc2ccc(C(=O)Nc3ccc(F)cc3)cn2)cc1 [Compound 100] |
| > 10 | O=C(Nc1ccc(F)cc1)c1ccc(SCC(=O)c2cc(-c3ccc(Cl)c(Cl)c3)no2)nc1 [Compound 135] |
| 0.52 ± 0.263 | O=C(Nc1ccncc1)c1ccc(SCc2ccccc2B(O)O)nc1 [Compound 162] |
| 0.393 ± 0.16 | O=C(Nc1ccc(F)cc1)c1ccc(SCc2ccccc2)nc1 [Compound 12] |
| > 10 | O=C(CSc1ccc(C(=O)Nc2ccc(F)cc2)cn1)c1cccc(F)c1 [Compound 91] |
| > 5 | O=C(Nc1ccc(F)cc1)c1ccc(SCC(=O)c2csc3ccccc23)nc1 [Compound 126] |
| > 10 | O=C(Nc1ccc(F)c(C(=O)O)c1)c1ccc(SCc2ccccc2B(O)O)nc1 [Compound 166] |
| 1.99 ± 0.46 | O=C(O)CN(C(=O)c1ccc(SCc2ccccc2B(O)O)nc1)c1ccc(F)cc1 [Compound 158] |
| 0.542 ± 0.104 | O=C(Nc1ccc(F)cc1)c1ccc(SCC2CCCO2)nc1 (stereo not shown) [Compound 76] |
| 0.899 ± 0.15 | O=C(Nc1ccc(F)cc1)c1ccc(SCc2ccc(B(O)O)cc2)nc1 [Compound 8] |
| > 5 | O=C(Nc1ccc(F)cc1)c1ccc(SCc2nccc3ccccc23)nc1 [Compound 54] |
| > 10 | COc1cc(CSc2ccc(C(=O)Nc3ccc(F)cc3)cn2)c(B(O)O)cc1OC [Compound 5, 6-(2-boronic acid-4,5-di-methoxy-benzylsulfanyl)-N-(4-fluoro-phenyl)-nicotinamide] |
| > 10 | O=C(Nc1ccc(F)cc1)c1ccc(SCC(=O)c2ccc(-c3ccccn3)s2)nc1 [Compound 124] |
| 1.58 | O=C(Nc1ccc(F)cc1)c1ccc(SCCOc2cccc3c2OCCO3)nc1 [Compound 52] |
| > 5 | O=C(Nc1ccc(F)cc1)c1ccc(SCC(=O)c2cc(-c3ccccc3)no2)nc1 [Compound 133] |
| > 10 | Nc1nc(N)c2nc(CSc3ccc(C(=O)Nc4ccc(F)cc4)cn3)cnc2n1 [Compound 57] |
| > 5 | O=C(CSc1ccc(C(=O)Nc2ccc(F)cc2)cn1)c1ccc2c(c1)OCCCO2 [Compound 142] |
| > 10 | Cn1c(CSc2ccc(C(=O)Nc3ccc(F)cc3)cn2)nc2ccccc21 [Compound 67] |
| > 10 | O=C(CSc1ccc(C(=O)Nc2ccc(F)cc2)cn1)c1ccsc1 [Compound 121] |

| SMILES | IC50 [µM] |
| --- | --- |
| COC(=O)c1cccc(CSc2ccc(C(=O)Nc3ccc(F)cc3)cn2)c1 [Compound 22] | > 5 |
| Cc1nc(-c2cccc(CSc3ccc(C(=O)Nc4ccc(F)cc4)cn3)c2)no1 [Compound 35] | > 10 |
| O=C(CSc1ccc(C(=O)Nc2ccc(F)cc2)cn1)c1ccc(Br)cc1 [Compound 88] | > 10 |
| O=C(Nc1ccc(-c2nn[nH]n2)cc1)c1ccc(SCc2ccccc2B(O)O)nc1 [Compound 161] | > 10 |
| Cc1onc(-c2ccccc2)c1CSc1ccc(C(=O)Nc2ccc(F)cc2)cn1 [Compound 45] | > 5 |

Same assay, conditions: read-out: IC50

| SMILES | IC50 [µM] |
| --- | --- |
| O=C(Nc1ccc(F)cc1)c1ccc(SCC(=O)c2ccco2)nc1 [Compound 116] | > 10 |
